# Assay results as given in patent US20230310333A1, “MESOPOROUS SILICA NANOPARTICLE CONTROLLED RELEASE SYSTEM, PREPARATION METHOD THEREFOR AND APPLICATION THEREOF” (East China University of Science and Technology, priority 2020, published 2023).
# What was measured:
# [1] = tested on: diabetic rats; test: glucose challenge 2.5 h after injection in diabetic rats (Example 38); assay type: in vivo, wistar rats; conditions: 4.1 IU subcutaneous in the neck, glucose 1.5 g/kg i.p. after 2.5 h, compared with normal group
# Description: Male wistar rats of 4-6 weeks were selected and fed for two weeks. streptozotocin (STZ) was administered once in a dose of 180 mg/kg (administered according to the specific body weight of the rat). The STZ was weighed according to the weight of the rat, put in a sterilized bottle, then wrapped with tinfoil. The sodium citrate buffer solution and the STZ bottle were brought into the animal room under ice bath conditions. A sodium citrate buffer solution with a concentration of 1% STZ (1 g/100 ml) was prepared, and injected into the tail vein within 30 minutes to prevent inactivation. After injection of STZ, adequate drinking water and feed were given every day. Fasting blood sugar was measured on the 1st day, 7th day, and 10th day. If it was greater than 16.65 mmol/L, it was a stable diabetes model. 2 groups of diabetic rats and 1 group of normal rats (4 rats in each group) were taken. Diabetic rat groups were subcutaneously injected with (1) 2.0 mg M3-2 (4.1 IU) and (2) insulin (4.1 IU) in the neck respectively. After 2.5 h of injection, g lucose (1.5 g/kg) was intraperitoneally injected into rats in the diabetes group and the normal group, and the blood sugar was detected.
# [2] = tested on: diabetic mice; test: glucose challenge after patch or injection in diabetic mice (Example 41); assay type: in vivo, C57bl/6 mice; conditions: 12.0 IU/kg, glucose 1.5 g/kg i.p. after 2.5 h, compared with normal group
# Description: 1.5 mg of M3-2 was added into 0.5 mL of ultrapure water, ultrasonically dispersed evenly. 0.25 g of hyaluronic acid (HA) was added, and stirred at room temperature until a homogeneous system was obtained to obtain an HA aqueous solution of M3-2, which was used as a pouring material of microneedle (Microneedles, MNs). 1 g of HA was added to 1 mL of ultrapure water and stirred at room temperature until clear and transparent to obtain a blank solution of HA, which was used as the base material of MNs. 50 μL HA aqueous solution of M3-2 was taken and added to the surface of the mold. […]
# C57bl/6 mice (male, 4-6 weeks) were selected and fed adaptively for two weeks at room temperature of 24° C.±1° C., humidity of 55% for 12 h with bright cycle (8:00-20:00) with adequate water and feed. […] Fasting blood glucose was measured on the 3rd, 5th, 7th, 10th, and 21st days, and it was a stable diabetes model if it was greater than 16.65 mmol/L.
# 2 groups of diabetic mice and 1 group of normal mice (4 mice in each group) were taken. […] After 2.5 h of injection or patch, glucose (1.5 g/kg) was intraperitoneally injected into mice in the diabetes group and the normal group, and the blood sugar was detected.
# [3] = tested on: diabetic rats; test: blood sugar of diabetic rats after subcutaneous injection (Example 37); assay type: in vivo, wistar rats; conditions: same dose (4.1 IU)
# Description: Male wistar rats of 4-6 weeks were selected and fed for two weeks. streptozotocin (STZ) was administered once in a dose of 180 mg/kg (administered according to the specific body weight of the rat). The STZ was weighed according to the weight of the rat, put in a sterilized bottle, then wrapped with tinfoil. The sodium citrate buffer solution and the STZ bottle were brought into the animal room under ice bath conditions. A sodium citrate buffer solution with a concentration of 1% STZ (1 g/100 ml) was prepared, and injected into the tail vein within 30 minutes to prevent inactivation. After injection of STZ, adequate drinking water and feed were given every day. Fasting blood sugar was measured on the 1st day, 7th day, and 10th day. If it was greater than 16.65 mmol/L, it was a stable diabetes model. Diabetic rats were taken and divided into 4 groups (4 rats in each group). The group of diabetic rats were subcutaneously injected (1) 1.5 mg M3-2, (2) 2.0 mg M3-2 (4.1 IU), (3) 1.0 mL PBS buffer solution and (4) insulin (4.1 IU). Blood sugar in rats was monitored for a period of time after injection.
substance,measurement,setting,value
insulin,blood sugar regulation after intraperitoneal glucose,[1],the blood sugar quickly returns to a higher blood sugar level
same,blood sugar regulation after intraperitoneal glucose,[2],the blood sugar quickly rises to a higher blood sugar level after glucose injection
same,duration of blood glucose at 100-200 mg/dL,[3],4.5 h
